# “And” between values parts separate entries of the source, which are not always exact repeats. Equal entries are not always repeated. Structures can show the parent of a compound that is named as a salt.
# Biological target: T1, Factor VIIa (Homo sapiens, UniProt P08709)
# T1 construct: purchased Haematologic Technologies (purified) or Novo Nordisk (recombinant)
# Assay: Factor VIIa assay
# Format: biochemical
# Details: measured in the Factor VIIa assay described above; several values in a cell are repeat determinations
# T1 sequence (P08709 213-466 limits assumed): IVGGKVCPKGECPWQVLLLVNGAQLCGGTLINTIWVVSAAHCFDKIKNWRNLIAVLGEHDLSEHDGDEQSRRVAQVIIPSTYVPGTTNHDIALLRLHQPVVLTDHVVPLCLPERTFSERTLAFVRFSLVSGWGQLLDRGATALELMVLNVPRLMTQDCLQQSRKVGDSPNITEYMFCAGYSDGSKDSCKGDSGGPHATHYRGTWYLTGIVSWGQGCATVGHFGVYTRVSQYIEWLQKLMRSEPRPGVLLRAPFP
# T1 sequence (P08709 61-212 limits assumed): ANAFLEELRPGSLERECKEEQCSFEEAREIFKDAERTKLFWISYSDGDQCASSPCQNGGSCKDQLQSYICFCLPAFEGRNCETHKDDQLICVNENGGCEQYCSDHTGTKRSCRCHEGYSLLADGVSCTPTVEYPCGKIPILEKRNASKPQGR
# T1 sequence (P13726 33-251 partner limits assumed): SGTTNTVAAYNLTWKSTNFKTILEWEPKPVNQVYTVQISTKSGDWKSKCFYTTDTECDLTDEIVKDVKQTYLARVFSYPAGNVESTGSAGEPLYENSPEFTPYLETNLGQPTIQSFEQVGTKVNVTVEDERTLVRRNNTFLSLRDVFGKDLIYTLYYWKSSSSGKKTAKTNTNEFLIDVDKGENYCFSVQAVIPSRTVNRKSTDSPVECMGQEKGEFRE
row,SMILES,Ki
1,"CCO[C@H]1COC(=O)Nc2ccc(S(=O)(=O)C3CC3)c(c2)CN(C)C(=O)[C@H](Nc2ccc3cc[nH]c(=O)c3c2)c2ccc1c(C)c2 (single isomer, unassigned) [Example 40]",1.57 nM
2,"Cc1cc2ccc1[C@@H](C)CCC(=O)Nc1ccc(OC(F)(F)F)c(c1)CN(C)C(=O)[C@@H]2Nc1ccc2c(F)c[nH]c(=O)c2c1 (single isomer, unassigned) [Example 42]",27.6 nM
3,"COc1cc2cc(OC)c1CCOC(=O)Nc1cccc(c1)[C@@H](CC(=O)O)NC(=O)[C@@H]2Nc1ccc2nc[nH]c(=O)c2c1 [Example 13, [(2R,5R)-17,20-Dimethoxy-3,12-dioxo-2-(4-oxo-3,4-dihydro-quinazolin-6-ylamino)-13-oxa-4,11-diaza-tricyclo[14.2.2.1^6,10]henicosa-1(19),6,8,10(21),16(20),17-hexaen-5-yl]-acetic acid]",24 nM and 40.4 nM
4,"Cc1cc2cc(C)c1CCOC(=O)Nc1cccc(c1)CN(C)C(=O)C2Nc1ccc2cc[nH]c(=O)c2c1 (stereo not shown) [Example 14, 4,17,20-Trimethyl-2-(1-oxo-1,2-dihydro-isoquinolin-7-ylamino)-13-oxa-4,11-diaza-tricyclo[14.2.2.1^6,10]henicosa-1(19),6,8,10(21),16(20),17-hexaene-3,12-dione]",1520 nM
5,"CCc1cc2ccc1[C@@H](C)COC(=O)Nc1ccc(S(=O)(=O)C3CC3)c(c1)CN(C)C(=O)[C@@H]2Nc1ccc2cc[nH]c(=O)c2c1 [Example 18, (2R,15R)-7-Cyclopropanesulfonyl-17-ethyl-4,15-dimethyl-2-(1-oxo-1,2-dihydro-isoquinolin-7-ylamino)-13-oxa-4,11-diaza-tricyclo[14.2.2.1^6,10]henicosa-1(19),6,8,10(21),16(20),17-hexaene-3,12-dione]",0.96 nM
6,"CC[C@H]1COC(=O)Nc2ccc(S(=O)(=O)C3CC3)c(c2)CN(C)C(=O)[C@H](Nc2ccc3nc[nH]c(=O)c3c2)c2ccc1cc2 [Example 65, (2R,15R)-7-Cyclopropanesulfonyl-15-ethyl-4-methyl-2-(4-oxo-3,4-dihydro-quinazolin-6-ylamino)-13-oxa-4,11-diaza-tricyclo[14.2.2.1^6,10]henicosa-1(19),6,8,10(21),16(20),17-hexaene-3,12-dione]",29.4 nM and 34 nM
7,"Cc1cc2ccc1[C@@H](C)COC(=O)Nc1ccc(S(=O)(=O)C3CC3)c(c1)CN(C)C(=O)[C@@H]2Nc1ccc2nc[nH]c(=O)c2c1 [Example 76, (2R,15R)-7-Cyclopropanesulfonyl-4,15,17-trimethyl-2-(4-oxo-3,4-dihydro-quinazolin-6-ylamino)-13-oxa-4,11-diaza-tricyclo[14.2.2.1^6,10]henicosa-1(19),6,8,10(21),16(20),17-hexaene-3,12-dione trifluoroacetate]",0.69 nM and 0.86 nM and 0.87 nM and 0.96 nM and 1.14 nM and 1.22 nM
8,"Cc1cc2ccc1[C@@H](C)COC(=O)Nc1ccc(S(=O)(=O)C3CC3)c(c1)CN(C)C(=O)[C@@H]2Nc1cc2c(=O)[nH]cnc2cc1F [Example 78, (2R,15R)-7-Cyclopropanesulfonyl-2-(7-fluoro-4-oxo-3,4-dihydro-quinazolin-6-ylamino)-4,15,17-trimethyl-13-oxa-4,1-diaza-tricyclo[14.2.2.1^6,10]henicosa-1(19),6,8,10(21),16(20),17-hexaene-3,12-dione]",1.35 nM and 1.38 nM
9,"Cc1cc2ccc1[C@@H](C)COC(=O)Nc1ccc(S(=O)(=O)C3CC3)c(c1)CN(C)C(=O)[C@@H]2Nc1ccc2cc[nH]c(=O)c2c1 [Example 79, (2R,15R)-7-Cyclopropanesulfonyl-4,15,17-trimethyl-2-(1-oxo-1,2-dihydro-isoquinolin-7-ylamino)-13-oxa-4,1-diaza-tricyclo[14.2.2.1^6,10]henicosa-1(19),6,8,10(21),16(20),17-hexaene-3,12-dione]",0.88 nM
10,"COc1cc2ccc1[C@@H](C)COC(=O)Nc1ccc(S(=O)(=O)C3CC3)c(c1)CN(C)C(=O)[C@@H]2Nc1ccc2cc[nH]c(=O)c2c1 [Example 82, (2R,15R)-7-Cyclopropanesulfonyl-17-methoxy-4,15-dimethyl-2-(1-oxo-1,2-dihydro-isoquinolin-7-ylamino)-13-oxa-4,11-diaza-tricyclo[14.2.2.1^6,10]henicosa-1(19),6,8,10(21),16(20),17-hexaene-3,12-dione]",0.61 nM
11,"C[C@H]1COC(=O)Nc2ccc(S(=O)(=O)C3CC3)c(c2)CN(C)C(=O)[C@H](Nc2ccc3cc[nH]c(=O)c3c2)c2ccc1c(Cl)c2 [Example 84, (2R,15R)-17-Chloro-7-cyclopropanesulfonyl-4,15-dimethyl-2-(1-oxo-1,2-dihydro-isoquinolin-7-ylamino)-13-oxa-4,11-diaza-tricycle [14.2.2.1^6,10]henicosa-1(19),6,8,10(21),16(20),17-hexaene-3,12-dione]",1.44 nM
12,"Cc1cc2ccc1[C@@H](C)COC(=O)Nc1ccc(N3CCCCS3(=O)=O)c(c1)CN(C)C(=O)[C@@H]2Nc1ccc2cc[nH]c(=O)c2c1 [Example 86, (2R,15R)-7-(1,1-Dioxo-1λ^6-perhydro-1,2-thiazin-2-yl)-4,15,17-trimethyl-2-(1-oxo-1,2-dihydro-isoquinolin-7-ylamino)-13-oxa-4,11-diaza-tricyclo[14.2.2.1^6,10]henicosa-1(19),6,8,10(21),16(20),17-hexaene-3,12-dione]",1.95 nM
13,"COC(=O)N1CC(=O)Nc2ccc(S(=O)(=O)C(C)C)c(c2)CNC(=O)C(Nc2ccc3nc[nH]c(=O)c3c2)c2cc(C)c(c(C)c2)C1 (stereo not shown) [Example 117, 17,20-Dimethyl-3,12-dioxo-2-(4-oxo-3,4-dihydro-quinazolin-6-ylamino)-7-(propane-2-sulfonyl)-4,11,14-triaza-tricyclo[14.2.2.1^6,10]henicosa-1(19),6,8,10(21),16(20),17-hexaene-14-carboxylic acid methyl ester trifluoroacetate]",21.9 nM
14,"CCC(=O)N1CC(=O)Nc2ccc(S(=O)(=O)C(C)C)c(c2)CNC(=O)C(Nc2ccc3nc[nH]c(=O)c3c2)c2cc(C)c(c(C)c2)C1 (stereo not shown) [Example 118, 17,20-Dimethyl-2-(4-oxo-3,4-dihydro-quinazolin-6-ylamino)-7-(propane-2-sulfonyl)-14-propionyl-4,11,14-triaza-tricyclo[14.2.2.1^6,10]henicosa-1(19),6,8,10(21),16(20),17-hexaene-3,12-dione trifluoroacetate]",28.1 nM
15,"CCN1CC(=O)Nc2ccc(S(=O)(=O)C(C)C)c(c2)CNC(=O)C(Nc2ccc3nc[nH]c(=O)c3c2)c2cc(C)c(c(C)c2)C1 (stereo not shown) [Example 121, 14-Ethyl-17,20-dimethyl-2-(4-oxo-3,4-dihydro-quinazolin-6-ylamino)-7-(propane-2-sulfonyl)-4,11,14-triaza-tricyclo[14.2.2.1^6,10]henicosa-1(19),6,8,10(21),16(20),17-hexaene-3,12-dione bistrifluoroacetate]",23.6 nM
16,"Cc1cc2cc(C)c1CN(C(C)C)CC(=O)Nc1ccc(S(=O)(=O)C(C)C)c(c1)CNC(=O)C2Nc1ccc2nc[nH]c(=O)c2c1 (stereo not shown) [Example 124, 14-Isopropyl-17,20-dimethyl-2-(4-oxo-3,4-dihydro-quinazolin-6-ylamino)-7-(propane-2-sulfonyl)-4,11,114-triaza-tricyclo[14.2.2.1^6,10]henicosa-1(19),6,8,10(21),06(20),17-hexaene-3,12-dione bistrifluoroacetate]",33.2 nM

# Source: patent US8420830B2, “Macrocyclic factor VIIa inhibitors useful as anticoagulants” (Bristol-Myers Squibb Company, priority 2006, dated 2013)
